For six molecules, IC50 and Mean % inhibition results are on record in patent US4738963A, “Method for the treatment of incontinence in mammals” (Beecham Group p.l.c., priority 1985, dated 1988).

What all share (assay type): cell-based
For one test, the system named is Rat isolated portal vein. The experiment in a line: Rat isolated portal vein: spontaneous contractions and contractions due to added calcium. To be noted: 0.25 h. As for the experimental part:
(1) Rat isolated portal vein.
Male Sprague Dawley rats (250-350) were killed by cervical dislocation. Portal veins (2-3 cm in length) were set up under 0.8-1 g tension in a 10 ml organ bath containing Krebs-Henseleit solution, at 37° C., of the following composition (mM): NaCl 118, NaHCO3 25, glucose 5, KH2 PO4 1.18, KCl 4.69, MgSO4 0.59, CaCl2.H2 O 1.87. The tissue was aerated with a 95% oxygen and 5% carbon dioxide mixture. Isometric tension was recorded using a Devices strain gauge and recorder. Each preparation was allowed 1 h to equilibrate before the addition of test compound. The ability of a compound to inhibit the contractions due to added calcium (3 mM CaCl2) was determined in tissues bathed in Krebs-Henseleit solution containing 0.05 mM CaCl2 (in order to reduce spontaneous contractions). Then percentage inhibition (mean± s.e.m.; 6-9 tissues) of the amplitude of the spontaneous contractions, and contractions due to added calcium, was determined after 15 min contact time with test compound.

Test [1] deals with Rabbit isolated mesenteric artery. The experiment in a line: Rabbit isolated mesenteric artery: relaxation of contractions due to KCl. The following applies: Oryctolagus cuniculus. As for the experimental part: (2) Rabbit isolated mesenteric artery.
Mesenteric arteries (3 mm rings) were removed from male New Zealand White rabbits and mounted, at a resting tension of 1.5-2.0 g, in a 10 ml organ bath containing a Ringer solution, at 37° C., of the following composition (mM): NaCl 120.8; KCl 5.9; CaCl2 2.5; MgCl2 1.2; HEPES 5.8; glucose 11.5. The bathing solution was bubbled with a 95% oxygen and 5% carbon dioxide mixture. Each preparation was allowed 1-11/2h to equilibrate before the addition of either 30 or 90 mM KCl to contract the tissue. The ability of test compound to relax the sustained contraction due to KCL was determined by assessing the % reduction (mean± s.e.m.; 4-9 tissues) produced by varying concentrations of test compound.

Test [2] relates to rat urinary bladder (detrusor) strip. Put plainly: Rat Detrusor Strip Screen: inhibition of electrically induced isometric contractions. The procedure:
Rat Detrusor Strip Screen
Male Wistar Charles River rats (Crl: WI BR) weighing 300-350 g were used.
The urinary bladder was removed and a longitudinal strip 3 mm wide was cut from the urethra to the apex of the bladder.
The strip was immediately immersed in a 20 ml bath containing Tyrode with double millimolar concentration of glucose (11.1 instead of 5.55) and with addition of sucrose (13.3 millimolar), kept at 37° C. and aerated with a mixture of O2 95% and CO2 5%.
Tyrode composition was (mM): NaCl 136.8, KCl 2.68, CaCl2 1.80, MgSO4.7H2 O 1.05, NaH2 PO4.H2 O 0.41, NaHCO3 11.9, glucose 11.1 sucrose 13.3. The strip was in direct contact with one of the two platinum electrodes placed on the top and bottom of the organ bath. Placed under an initial tension of 2 g, the strip was then allowed to relax until a baseline of about 1 g. After a 5 min equilibration period isometric contractions were induced by a GRASS S88 2 channel stimulator using the following parameters trains of pulses of 2 sec duration each every 100 sec; square wave pulse of volts (60-70); duration 0.7 ms and 30 Hz.
When the contractions became constant (60-90 min), the strips were exposed to the test compound. The isometric contractions were measured with a Basile DYl force transducer connect to Battaglia Rangoni 4 channel recorder. The results are expressed as per cent of contraction inhibition.

Where two headings read alike, the source gives them in different places.

`CC1(C)Oc2ccc(C#N)cc2[C@@H](N2CCCC2=O)[C@@H]1O` (relative stereo) [Compound 1, 6-cyano-3,4-dihydro-2,2-dimethyl-trans-4-(2-oxo-1-pyrrolidinyl)-2H-benzo[b]pyran-3-ol]: the half-inhibitory concentration (IC50) with Rat isolated portal vein (amplitude of spontaneous contractions, 15 min contact time, read-out: IC50 Spontaneous (contractions)) is 120 nM; in the test on Rat isolated portal vein (contractions due to added calcium (3 mM CaCl2) in Krebs-Henseleit with 0.05 mM CaCl2, 15 min contact time, read-out: IC50 Ca^2+ (3 mM)), 150 nM; in test [1] (sustained contraction due to 30 mM KCl, read-out: IC50 30 mM KCl) it was 510 nM; in test [1] (sustained contraction due to 90 mM KCl, read-out: IC50 90 mM KCl), over 10000 nM. Also, the Mean % inhibition in test [2] (Molar Conc 1 × 10^-5) is -46.4%. For `CNC(=O)N[C@@H]1c2cc(C#N)ccc2OC(C)(C)[C@H]1O` (relative stereo) [Compound 6, trans-6-cyano-3,4-dihydro-2,2-dimethyl-4-(N-methylureido)-2H-1-benzo[b]pyran-3-ol], the Mean % inhibition in test [2] (Molar Conc 3 × 10^-5) was -44.2%. For `CC1(C)Oc2ccc(C#N)cc2[C@@H](N2CCCCC2=O)[C@@H]1O` (relative stereo) [Compound 3], in test [2] (Molar Conc 1 × 10^-6), the Mean % inhibition is -34.2%. Turning to `CC(=O)N[C@@H]1c2cc(C#N)ccc2OC(C)(C)[C@H]1O` (relative stereo) [Compound 4, trans-4-N-acetylamino-6-cyano-3,4-dihydro-2,2-dimethyl-2H-benzo[b]pyran-3-ol], the Mean % inhibition in test [2] (Molar Conc 3 × 10^-5) is -32.9%.

For `CC1(C)Oc2ccc(C#N)cc2[C@@H](N2CCNCC2=O)[C@@H]1O` (relative stereo) [Compound 5, 6-cyano-3,4-dihydro-2,2-dimethyl-trans 4-(2-oxo-1-piperazinyl)-2H-benzo[t]pyran-3-ol], in test [2] (Molar Conc 1 × 10^-5), the Mean % inhibition was -37.2%. The same measure, in the same setting: in the case of `CC1(C)C=C(N2CCCC2=O)c2cc(C#N)ccc2O1` [Compound 2, 6-cyano-2,2-dimethyl-4-(2-oxo-1-pyrrolidinyl)-2H-1-benzopyran] it was -59.7%.

As a reminder, the IC50 is the point on the concentration scale where inhibition reaches its midpoint.
